pIC50: −log10 of the molar value.

The first assay relates to MDA-MB-435. The assay is described as follows: In vivo percent T/C against MDA-MB-435 human breast carcinoma cells implanted sc in mice at a dose 100 umol/kg. It is filed as functional.
Broadly, the T/C is the ratio of treated to control. `CO[C@@H](C(=O)NC1CC[C@@H](OC(=O)C2CCCCC2)CNC1=O)[C@H](O)[C@@H](O)[C@H](O)/C=C/C(C)(C)C` (some centres not stated): the T/C is <29%.

A further assay deals with MDA-MB-435. Nature of the assay: In vivo percent T/C against MDA-MB-435 human breast carcinoma cells implanted sc in mice at a dose 10 umol/kg. Format: functional.
Regarding `CO[C@@H](C(=O)NC1CC[C@@H](OC(=O)c2ccccc2)CNC1=O)[C@H](O)[C@@H](O)[C@H](O)/C=C/C(C)(C)C` (some centres not stated), the T/C was 93%.
On to `CO[C@@H](C(=O)NC1CC[C@@H](OC(=O)/C=C/c2ccccc2)CNC1=O)[C@H](O)[C@@H](O)[C@H](O)/C=C/C(C)(C)C` (some centres not stated), for which the T/C is given as <64%.
Take `CO[C@@H](C(=O)NC1CC[C@@H](OC(=O)CCc2cccnc2)CNC1=O)[C@H](O)[C@@H](O)[C@H](O)/C=C/C(C)(C)C` (some centres not stated): the T/C is 92%.
On the same count and under the same terms, then `CCCCCCCCCCCCCC(=O)O[C@H]1CCC(NC(=O)[C@H](OC)[C@H](O)[C@@H](O)[C@H](O)/C=C/C(C)(C)C)C(=O)N(C)C1` (some centres not stated), with <58%.
The same measure, in the same setting: then `CO[C@@H](C(=O)NC1CC[C@@H](OC(=O)Cc2cccnc2)CNC1=O)[C@H](O)[C@@H](O)[C@H](O)/C=C/C(C)(C)C` (some centres not stated), with 69%; and `CCCCCCCCCCCCCC(=O)O[C@@H]1CCC(NC(=O)[C@H](OC)[C@H](O)[C@@H](O)[C@H](O)/C=C/C(C)(C)C)C(=O)NC1` (some centres not stated), with <41%.
Consider `CO[C@@H](C(=O)NC1CC[C@@H](OC(=O)CC2CCCCC2)CNC1=O)[C@H](O)[C@@H](O)[C@H](O)/C=C/C(C)(C)C` (some centres not stated), for which the T/C is listed as <47%.
Turning to `CCCCCCCCCCc1ccc(C(=O)O[C@@H]2CCC(NC(=O)[C@H](OC)[C@H](O)[C@@H](O)[C@H](O)/C=C/C(C)(C)C)C(=O)NC2)cc1` (some centres not stated), the T/C is reported as 76%.
In the case of `CO[C@@H](C(=O)NC1CC[C@@H](OC(=O)C2CCCCCC2)CNC1=O)[C@H](O)[C@@H](O)[C@H](O)/C=C/C(C)(C)C` (some centres not stated), the T/C is <39%.
For the compound `CO[C@@H](C(=O)NC1CC[C@@H](OC(=O)C2CCCCC2)CNC1=O)[C@H](O)[C@@H](O)[C@H](O)/C=C/C(C)(C)C` (some centres not stated), the T/C is <58%.

For the next assay, the system named is MDA-MB-435. The assay is described as follows: Antiproliferative activity against MDA-MB-435 human breast carcinoma cells in vitro using MDA-MB-435 monolayer growth assay. It is filed as functional.
Usually pIC50 stands for −log10 of the IC50, conventionally taken in molar units. Lower therefore signals a high IC50. For `CO[C@@H](C(=O)NC1CC[C@@H](OC(=O)c2ccccc2)CNC1=O)[C@H](O)[C@@H](O)[C@H](O)/C=C/C(C)(C)C` (some centres not stated), the pIC50 was 6.43.
The same measure, in the same setting: under `CO[C@@H](C(=O)NC1CC[C@@H](OC(=O)/C=C/c2ccccc2)CNC1=O)[C@H](O)[C@@H](O)[C@H](O)/C=C/C(C)(C)C` (some centres not stated) stands 7.70; under `CO[C@@H](C(=O)NC1CC[C@@H](OC(=O)CCc2cccnc2)CNC1=O)[C@H](O)[C@@H](O)[C@H](O)/C=C/C(C)(C)C` (some centres not stated), 6.34.
As for `CCCCCCCCCCCCCC(=O)O[C@H]1CCC(NC(=O)[C@H](OC)[C@H](O)[C@@H](O)[C@H](O)/C=C/C(C)(C)C)C(=O)N(C)C1` (some centres not stated), the pIC50 is 8.00.
Still for that read-out and setting: under `CO[C@@H](C(=O)NC1CC[C@@H](OC(=O)Cc2cccnc2)CNC1=O)[C@H](O)[C@@H](O)[C@H](O)/C=C/C(C)(C)C` (some centres not stated) stands 5.23; under `CCCCCCCCCCCCCC(=O)O[C@@H]1CCC(NC(=O)[C@H](OC)[C@H](O)[C@@H](O)[C@H](O)/C=C/C(C)(C)C)C(=O)NC1` (some centres not stated), > 8.00; under `CO[C@@H](C(=O)NC1CC[C@@H](OC(=O)CC2CCCCC2)CNC1=O)[C@H](O)[C@@H](O)[C@H](O)/C=C/C(C)(C)C` (some centres not stated), 7.22.
In turn, `CCCCCCCCCCc1ccc(C(=O)O[C@@H]2CCC(NC(=O)[C@H](OC)[C@H](O)[C@@H](O)[C@H](O)/C=C/C(C)(C)C)C(=O)NC2)cc1` (some centres not stated) had a pIC50 of 7.52.
Regarding `CO[C@@H](C(=O)NC1CC[C@@H](OC(=O)C2CCCCCC2)CNC1=O)[C@H](O)[C@@H](O)[C@H](O)/C=C/C(C)(C)C` (some centres not stated), the pIC50 is 7.70.
Turning to `CO[C@@H](C(=O)NC1CC[C@@H](OC(=O)C2CCCCC2)CNC1=O)[C@H](O)[C@@H](O)[C@H](O)/C=C/C(C)(C)C` (some centres not stated), the pIC50 was 8.40.

A further assay deals with MDA-MB-435. Nature of the assay: In vivo percent T/C against MDA-MB-435 human breast carcinoma cells implanted sc in mice at a dose 33 umol/Kg. Format: functional.
In turn, `CO[C@@H](C(=O)NC1CC[C@@H](OC(=O)c2ccccc2)CNC1=O)[C@H](O)[C@@H](O)[C@H](O)/C=C/C(C)(C)C` (some centres not stated) returned a T/C of 80%.
Consider `CO[C@@H](C(=O)NC1CC[C@@H](OC(=O)/C=C/c2ccccc2)CNC1=O)[C@H](O)[C@@H](O)[C@H](O)/C=C/C(C)(C)C` (some centres not stated), for which the T/C was <63%.
As for `CO[C@@H](C(=O)NC1CC[C@@H](OC(=O)CCc2cccnc2)CNC1=O)[C@H](O)[C@@H](O)[C@H](O)/C=C/C(C)(C)C` (some centres not stated), the T/C is <44%.
With `CCCCCCCCCCCCCC(=O)O[C@H]1CCC(NC(=O)[C@H](OC)[C@H](O)[C@@H](O)[C@H](O)/C=C/C(C)(C)C)C(=O)N(C)C1` (some centres not stated), the T/C was <46%.
With `CO[C@@H](C(=O)NC1CC[C@@H](OC(=O)Cc2cccnc2)CNC1=O)[C@H](O)[C@@H](O)[C@H](O)/C=C/C(C)(C)C` (some centres not stated), the T/C is on record as 82%.
The same measure, in the same setting: then `CCCCCCCCCCCCCC(=O)O[C@@H]1CCC(NC(=O)[C@H](OC)[C@H](O)[C@@H](O)[C@H](O)/C=C/C(C)(C)C)C(=O)NC1` (some centres not stated), with <4%; and `CO[C@@H](C(=O)NC1CC[C@@H](OC(=O)CC2CCCCC2)CNC1=O)[C@H](O)[C@@H](O)[C@H](O)/C=C/C(C)(C)C` (some centres not stated), with <34%; and `CCCCCCCCCCc1ccc(C(=O)O[C@@H]2CCC(NC(=O)[C@H](OC)[C@H](O)[C@@H](O)[C@H](O)/C=C/C(C)(C)C)C(=O)NC2)cc1` (some centres not stated), with <6%.
Regarding `CO[C@@H](C(=O)NC1CC[C@@H](OC(=O)C2CCCCCC2)CNC1=O)[C@H](O)[C@@H](O)[C@H](O)/C=C/C(C)(C)C` (some centres not stated), the T/C is listed as <28%.
Take `CO[C@@H](C(=O)NC1CC[C@@H](OC(=O)C2CCCCC2)CNC1=O)[C@H](O)[C@@H](O)[C@H](O)/C=C/C(C)(C)C` (some centres not stated): the T/C is <7%.

A further assay relates to MDA-MB-435. Nature of the assay: In vivo for percent body weight against MDA-MB-435 human breast carcinoma cells implanted sc in mice at a dose 100 umol/Kg. It is filed as functional.
For `CO[C@@H](C(=O)NC1CC[C@@H](OC(=O)C2CCCCC2)CNC1=O)[C@H](O)[C@@H](O)[C@H](O)/C=C/C(C)(C)C` (some centres not stated), the Body weight was -2.6%.

Another assay has as its system MDA-MB-435. Nature of the assay: In vivo percent body weight versus MDA-MB-435 human breast carcinoma cells implanted sc in mice at a dose 10 umol/kg. Format: functional.
Consider `CO[C@@H](C(=O)NC1CC[C@@H](OC(=O)c2ccccc2)CNC1=O)[C@H](O)[C@@H](O)[C@H](O)/C=C/C(C)(C)C` (some centres not stated), for which the Body weight is 5.5%.
Same read-out and setting: then `CO[C@@H](C(=O)NC1CC[C@@H](OC(=O)/C=C/c2ccccc2)CNC1=O)[C@H](O)[C@@H](O)[C@H](O)/C=C/C(C)(C)C` (some centres not stated), with 7.4%.
Take `CO[C@@H](C(=O)NC1CC[C@@H](OC(=O)CCc2cccnc2)CNC1=O)[C@H](O)[C@@H](O)[C@H](O)/C=C/C(C)(C)C` (some centres not stated): the Body weight amounted to 10.1%.
With `CCCCCCCCCCCCCC(=O)O[C@H]1CCC(NC(=O)[C@H](OC)[C@H](O)[C@@H](O)[C@H](O)/C=C/C(C)(C)C)C(=O)N(C)C1` (some centres not stated), the Body weight amounted to 6.1%.
Still for that read-out and setting: then `CO[C@@H](C(=O)NC1CC[C@@H](OC(=O)Cc2cccnc2)CNC1=O)[C@H](O)[C@@H](O)[C@H](O)/C=C/C(C)(C)C` (some centres not stated), with 6.4%; and `CCCCCCCCCCCCCC(=O)O[C@@H]1CCC(NC(=O)[C@H](OC)[C@H](O)[C@@H](O)[C@H](O)/C=C/C(C)(C)C)C(=O)NC1` (some centres not stated), with 7.4%.
Still for that read-out and setting: then `CO[C@@H](C(=O)NC1CC[C@@H](OC(=O)CC2CCCCC2)CNC1=O)[C@H](O)[C@@H](O)[C@H](O)/C=C/C(C)(C)C` (some centres not stated), with 4.6%; and `CCCCCCCCCCc1ccc(C(=O)O[C@@H]2CCC(NC(=O)[C@H](OC)[C@H](O)[C@@H](O)[C@H](O)/C=C/C(C)(C)C)C(=O)NC2)cc1` (some centres not stated), with 6%.
As for `CO[C@@H](C(=O)NC1CC[C@@H](OC(=O)C2CCCCCC2)CNC1=O)[C@H](O)[C@@H](O)[C@H](O)/C=C/C(C)(C)C` (some centres not stated), the Body weight is 10.1%.
The same measure, in the same setting: then `CO[C@@H](C(=O)NC1CC[C@@H](OC(=O)C2CCCCC2)CNC1=O)[C@H](O)[C@@H](O)[C@H](O)/C=C/C(C)(C)C` (some centres not stated), with 10.5%.

The subject of a further assay is MDA-MB-435. Nature of the assay: In vivo percent body weight versus MDA-MB-435 human breast carcinoma cells implanted sc in mice at a dose 33 umol/Kg. Format: functional.
Take `CO[C@@H](C(=O)NC1CC[C@@H](OC(=O)c2ccccc2)CNC1=O)[C@H](O)[C@@H](O)[C@H](O)/C=C/C(C)(C)C` (some centres not stated): the Body weight is 5.6%.
For the compound `CO[C@@H](C(=O)NC1CC[C@@H](OC(=O)/C=C/c2ccccc2)CNC1=O)[C@H](O)[C@@H](O)[C@H](O)/C=C/C(C)(C)C` (some centres not stated), the Body weight is 7.5%.
For the compound `CO[C@@H](C(=O)NC1CC[C@@H](OC(=O)CCc2cccnc2)CNC1=O)[C@H](O)[C@@H](O)[C@H](O)/C=C/C(C)(C)C` (some centres not stated), the Body weight was determined as 3%.
Same read-out and setting: then `CCCCCCCCCCCCCC(=O)O[C@H]1CCC(NC(=O)[C@H](OC)[C@H](O)[C@@H](O)[C@H](O)/C=C/C(C)(C)C)C(=O)N(C)C1` (some centres not stated), with 6.4%.
As for `CO[C@@H](C(=O)NC1CC[C@@H](OC(=O)Cc2cccnc2)CNC1=O)[C@H](O)[C@@H](O)[C@H](O)/C=C/C(C)(C)C` (some centres not stated), the Body weight is recorded as 6.8%.
Take `CCCCCCCCCCCCCC(=O)O[C@@H]1CCC(NC(=O)[C@H](OC)[C@H](O)[C@@H](O)[C@H](O)/C=C/C(C)(C)C)C(=O)NC1` (some centres not stated): the Body weight was 5.7%.
Turning to `CO[C@@H](C(=O)NC1CC[C@@H](OC(=O)CC2CCCCC2)CNC1=O)[C@H](O)[C@@H](O)[C@H](O)/C=C/C(C)(C)C` (some centres not stated), the Body weight is 3.5%.
On to `CCCCCCCCCCc1ccc(C(=O)O[C@@H]2CCC(NC(=O)[C@H](OC)[C@H](O)[C@@H](O)[C@H](O)/C=C/C(C)(C)C)C(=O)NC2)cc1` (some centres not stated), for which the Body weight turned out to be 2.6%.
Still for that read-out and setting: then `CO[C@@H](C(=O)NC1CC[C@@H](OC(=O)C2CCCCCC2)CNC1=O)[C@H](O)[C@@H](O)[C@H](O)/C=C/C(C)(C)C` (some centres not stated), with 8.4%; and `CO[C@@H](C(=O)NC1CC[C@@H](OC(=O)C2CCCCC2)CNC1=O)[C@H](O)[C@@H](O)[C@H](O)/C=C/C(C)(C)C` (some centres not stated), with 3.5%.

(Values after ChEMBL document CHEMBL1134665, “Synthesis and antitumor activity of ester-modified analogues of bengamide B” (J Med Chem, 2001).)
